The values that follow come from ChEMBL document CHEMBL4002634, “Benzoflavones as cholesterol esterase inhibitors: Synthesis, biological evaluation and docking studies” (Bioorg Med Chem Lett, 2017).

The structures appear in SMILES notation.

Assay [1] concerns the target T1, Carboxylic ester hydrolase (Sus scrofa) (UniProt A0A286ZKB1).
T1 sequence (whole entry): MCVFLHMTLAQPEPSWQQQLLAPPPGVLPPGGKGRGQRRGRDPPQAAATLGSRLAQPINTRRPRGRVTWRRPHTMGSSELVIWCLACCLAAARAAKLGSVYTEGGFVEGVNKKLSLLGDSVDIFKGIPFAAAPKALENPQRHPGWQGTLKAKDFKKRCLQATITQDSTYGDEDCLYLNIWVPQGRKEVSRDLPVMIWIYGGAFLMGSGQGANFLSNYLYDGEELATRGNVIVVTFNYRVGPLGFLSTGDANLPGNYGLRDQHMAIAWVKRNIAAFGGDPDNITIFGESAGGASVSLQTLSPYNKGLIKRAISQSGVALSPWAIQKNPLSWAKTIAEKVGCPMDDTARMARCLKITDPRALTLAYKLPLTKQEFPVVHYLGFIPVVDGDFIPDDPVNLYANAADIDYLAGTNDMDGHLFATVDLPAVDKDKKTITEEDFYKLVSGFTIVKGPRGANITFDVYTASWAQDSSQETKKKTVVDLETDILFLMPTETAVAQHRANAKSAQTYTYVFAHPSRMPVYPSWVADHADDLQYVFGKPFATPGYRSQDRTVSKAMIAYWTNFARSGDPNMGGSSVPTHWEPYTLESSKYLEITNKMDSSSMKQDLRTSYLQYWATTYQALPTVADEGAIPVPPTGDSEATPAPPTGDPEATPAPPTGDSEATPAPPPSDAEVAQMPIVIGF
The assay is described as follows: Inhibition of porcine cholesterol esterase at 1 nM using para-nitrophenyl butyrate as substrate after 5 mins in presence of sodium taurocholate by spectrophotometric method relative to control.

Assay [2] deals with T1, Carboxylic ester hydrolase (Sus scrofa). The assay is described as follows: Inhibition of porcine cholesterol esterase at 25 nM using para-nitrophenyl butyrate as substrate after 5 mins in presence of sodium taurocholate by spectrophotometric method relative to control.
Assay [3] deals with T2, Carboxylic ester hydrolase (Sus scrofa, UniProt A0A286ZKB1).
T2 sequence (A0A286ZKB1 whole entry): T1 sequence (whole entry)
The assay is described as follows: Inhibition of porcine cholesterol esterase using para-nitrophenyl butyrate as substrate after 5 mins in presence of sodium taurocholate by spectrophotometric method.

The target of assay [4] is T1, Carboxylic ester hydrolase (Sus scrofa). As to the kind of experiment: Inhibition of porcine cholesterol esterase at 10 nM using para-nitrophenyl butyrate as substrate after 5 mins in presence of sodium taurocholate by spectrophotometric method relative to control.
Assay [5] has the same target. The assay is described as follows: Inhibition of porcine cholesterol esterase at 50 nM using para-nitrophenyl butyrate as substrate after 5 mins in presence of sodium taurocholate by spectrophotometric method relative to control.
For assay [6] the target is unchanged. As to the kind of experiment: Inhibition of porcine cholesterol esterase at 5 nM using para-nitrophenyl butyrate as substrate after 5 mins in presence of sodium taurocholate by spectrophotometric method relative to control.

For orientation: inhibition means the change of the read-out against control, counted positive when it falls. One may read the IC50 as the midpoint of a concentration-inhibition curve. Take `O=c1cc(-c2cccc(CCl)c2)oc2c1ccc1ccccc12`: the inhibition stood at 35% in assay [1]; 62% in assay [2]; 52% in assay [4]; 68% in assay [5]; 45% in assay [6]. Also, the IC50 in assay [3] (read-out: IC50) turned out to be 40 nM.

As to `O=c1cc(-c2cc(F)ccc2C(F)(F)F)oc2c1ccc1ccccc12`, the inhibition in assay [1] is 26%; in assay [2], 54%; in assay [4], 41%; in assay [5] it was 63%; in assay [6], 34%. Further, in assay [3] (read-out: IC50), the IC50 is 41.3 nM.

Turning to `O=c1cc(-c2ccccc2I)oc2c1ccc1ccccc12`, the inhibition is 46% in assay [1]; 79% in assay [2]; 78% in assay [4]; 80% in assay [5]; 64% in assay [6]. For the same compound, in assay [3] (read-out: IC50), the IC50 came out at 16.1 nM.

As for `O=c1cc(-c2ccc([N+](=O)[O-])cc2)oc2c1ccc1ccccc12`, the inhibition in assay [1] came to 35%; in assay [2], 69%; in assay [4], 68%; in assay [5], 70%; in assay [6], 47%. In assay [3] (read-out: IC50), the IC50 came to 37.3 nM.

On to `O=c1cc(-c2cc(C(F)(F)F)cc(C(F)(F)F)c2)oc2c1ccc1ccccc12`, for which the inhibition was found to be 21% in assay [1]; 42% in assay [2]; 34% in assay [4]; 54% in assay [5]; 28% in assay [6]. Besides, the 50% inhibitory concentration (IC50) result in assay [3] is listed as “Not Active”.

For the compound `O=c1cc(-c2cccc(OC(F)(F)F)c2)oc2c1ccc1ccccc12`, the inhibition came out at 17% in assay [1]; 39% in assay [2]; 32% in assay [4]; 44% in assay [5]; 24% in assay [6]. Besides, the IC50 result in assay [3] is “Not Active”.

Take `O=c1cc(-c2ccc(F)cc2C(F)(F)F)oc2c1ccc1ccccc12`: the inhibition came to 28% in assay [1]; 55% in assay [2]; 44% in assay [4]; 63% in assay [5]; 38% in assay [6]. The concentration for half-maximal inhibition (IC50) in assay [3] (read-out: IC50) came to 39.1 nM.

Consider `O=c1cc(-c2ccc(F)cc2)oc2c1ccc1ccccc12`, for which the inhibition amounted to 46% in assay [1]; 75% in assay [2]; 73% in assay [4]; 79% in assay [5]; 62% in assay [6]. For the same compound, the half-maximal inhibitory concentration (IC50) in assay [3] (read-out: IC50) stood at 20.1 nM.

Regarding `O=c1cc(-c2cccc(C(F)(F)F)c2)oc2c1ccc1ccccc12`, the inhibition in assay [1] came out at 26%; in assay [2] it was 47%; in assay [4], 34%; in assay [5], 57%; in assay [6], 30%. The 50% inhibitory concentration (IC50) result in assay [3] is “Not Active”.

`O=c1cc(-c2cccc([N+](=O)[O-])c2)oc2c1ccc1ccccc12`: the inhibition turned out to be 36% in assay [1]; 75% in assay [2]; 71% in assay [4]; 78% in assay [5]; 51% in assay [6]. In assay [3] (read-out: IC50), the concentration for half-maximal inhibition (IC50) was 25.1 nM.

In the case of `O=c1cc(-c2ccc(OC(F)(F)F)cc2)oc2c1ccc1ccccc12`, the inhibition is 20% in assay [1]; 42% in assay [2]; 35% in assay [4]; 46% in assay [5]; 26% in assay [6]. Moreover, the half-inhibitory concentration (IC50) result in assay [3] is “Not Active”.

On to `CC(=O)Oc1cccc(-c2cc(=O)c3ccc4ccccc4c3o2)c1`, for which the inhibition in assay [1] worked out at 23%; in assay [2], 47%; in assay [4] it was 36%; in assay [5], 55%; in assay [6] it was 27%. Besides, in assay [3], the IC50 result is reported as “Not Active”.

Take `O=c1cc(-c2ccc(F)c(F)c2)oc2c1ccc1ccccc12`: the inhibition in assay [1] worked out at 48%; in assay [2] it was 79%; in assay [4] it was 76%; in assay [5] it was 81%; in assay [6] it was 68%. Also, the IC50 in assay [3] (read-out: IC50) came out at 14.1 nM.

Take `CC(=O)Oc1ccc(-c2cc(=O)c3ccc4ccccc4c3o2)cc1`: the inhibition in assay [1] amounted to 21%; in assay [2], 46%; in assay [4], 34%; in assay [5], 56%; in assay [6], 28%. In addition, the IC50 entry in assay [3] is on record as “Not Active”.

Regarding `O=c1cc(-c2ccccc2Br)oc2c1ccc1ccccc12`, the inhibition was 51% in assay [1]; 81% in assay [2]; 79% in assay [4]; 83% in assay [5]; 66% in assay [6]. For the same compound, the IC50 in assay [3] (read-out: IC50) amounted to 11 nM.

For `O=c1cc(-c2cc([N+](=O)[O-])cc([N+](=O)[O-])c2)oc2c1ccc1ccccc12`, the inhibition stood at 41% in assay [1]; 75% in assay [2]; 72% in assay [4]; 76% in assay [5]; 54% in assay [6]. The 50% inhibitory concentration (IC50) in assay [3] (read-out: IC50) was determined as 30 nM.

With `O=c1cc(-c2ccccc2F)oc2c1ccc1ccccc12`, the inhibition in assay [1] amounted to 50%; in assay [2], 84%; in assay [4], 81%; in assay [5] it was 89%; in assay [6] it was 65%. In assay [3] (read-out: IC50), the IC50 was found to be 3.22 nM.

For `O=c1cc(-c2cccc(Br)c2)oc2c1ccc1ccccc12`, the inhibition in assay [1] stood at 43%; in assay [2], 76%; in assay [4], 73%; in assay [5], 78%; in assay [6] it was 57%. The half-maximal inhibitory concentration (IC50) in assay [3] (read-out: IC50) stood at 26.1 nM.

Consider `COc1ccc(-c2cc(=O)c3ccc4ccccc4c3o2)cc1`, for which the inhibition in assay [1] turned out to be 11%; in assay [2], 28%; in assay [4], 22%; in assay [5], 31%; in assay [6], 18%. The IC50 entry in assay [3] is reported as “Not Active”.

On to `O=c1cc(-c2c(F)cccc2C(F)(F)F)oc2c1ccc1ccccc12`, for which the inhibition turned out to be 31% in assay [1]; 59% in assay [2]; 52% in assay [4]; 64% in assay [5]; 48% in assay [6]. In addition, the IC50 in assay [3] (read-out: IC50) was found to be 38.9 nM.

In the case of `CN(C)c1ccc(-c2cc(=O)c3ccc4ccccc4c3o2)cc1`, the inhibition in assay [1] was determined as 9%; in assay [2], 21%; in assay [4] it was 18%; in assay [5], 23%; in assay [6], 12%. The 50% inhibitory concentration (IC50) result in assay [3] is “Not Active”.

`O=c1cc(-c2cc(F)ccc2F)oc2c1ccc1ccccc12`: the inhibition stood at 49% in assay [1]; 84% in assay [2]; 79% in assay [4]; 86% in assay [5]; 65% in assay [6]. Further, the 50% inhibitory concentration (IC50) in assay [3] (read-out: IC50) came to 6.81 nM.

For the compound `O=c1cc(-c2cccc(Cl)c2Cl)oc2c1ccc1ccccc12`, the inhibition is 50% in assay [1]; 82% in assay [2]; 78% in assay [4]; 84% in assay [5]; 64% in assay [6]. In addition, the IC50 in assay [3] (read-out: IC50) worked out at 10.8 nM.

For the compound `O=c1cc(-c2cccc(F)c2)oc2c1ccc1ccccc12`, the inhibition in assay [1] was found to be 50%; in assay [2], 83%; in assay [4] it was 79%; in assay [5] it was 87%; in assay [6] it was 64%. In assay [3] (read-out: IC50), the half-inhibitory concentration (IC50) amounted to 5.24 nM.

Consider `O=c1cc(-c2ccccc2)oc2c1ccc1ccccc12` [ALPHA-NAPHTHOFLAVONE], for which the inhibition came out at 28% in assay [1]; 48% in assay [2]; 40% in assay [4]; 51% in assay [5]; 33% in assay [6]. Moreover, the IC50 in assay [3] (read-out: IC50) stood at 47.8 nM.

For `O=c1cc(-c2ccc(Br)cc2)oc2c1ccc1ccccc12`, the inhibition in assay [1] is 40%; in assay [2] it was 76%; in assay [4] it was 74%; in assay [5], 77%; in assay [6], 59%. The IC50 in assay [3] (read-out: IC50) stood at 28.5 nM.

In the case of `COc1ccc(-c2cc(=O)c3ccc4ccccc4c3o2)c(OC)c1`, the inhibition came out at 6% in assay [1]; 25% in assay [2]; 21% in assay [4]; 28% in assay [5]; 12% in assay [6]. For the same compound, the concentration for half-maximal inhibition (IC50) result in assay [3] is “Not Active”.

As for `O=c1cc(-c2cccc(Cl)c2)oc2c1ccc1ccccc12`, the inhibition in assay [1] is 51%; in assay [2], 83%; in assay [4], 80%; in assay [5], 85%; in assay [6], 68%. In addition, in assay [3] (read-out: IC50), the 50% inhibitory concentration (IC50) was 6.99 nM.
